SMILES strings stand for the structures. Where two headings read alike, the source gives them in different places.

This experiment has as its target T1, Human M4 (Homo sapiens, UniProt P08173).
T1 construct: expressed in transfected cells
T1 sequence (P08173 1-479): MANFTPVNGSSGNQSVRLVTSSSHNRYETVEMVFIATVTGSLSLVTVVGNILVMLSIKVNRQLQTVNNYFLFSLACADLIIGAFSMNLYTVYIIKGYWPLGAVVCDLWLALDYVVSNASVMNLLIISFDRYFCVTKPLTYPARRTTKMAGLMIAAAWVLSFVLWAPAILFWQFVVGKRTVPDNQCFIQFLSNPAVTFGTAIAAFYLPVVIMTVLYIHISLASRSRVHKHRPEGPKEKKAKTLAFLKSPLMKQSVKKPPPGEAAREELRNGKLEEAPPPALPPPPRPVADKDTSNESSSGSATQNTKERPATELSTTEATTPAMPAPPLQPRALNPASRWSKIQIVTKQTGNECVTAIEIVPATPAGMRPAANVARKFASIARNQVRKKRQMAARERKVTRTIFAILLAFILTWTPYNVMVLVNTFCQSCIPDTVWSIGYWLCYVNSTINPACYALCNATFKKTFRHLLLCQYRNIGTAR
Put plainly: mAChR M4 cell-based functional assay (calcium flux, potentiation of EC20 acetylcholine response), hM4-Gqi5 CHO-K1 cells. The conditions noted are these: for Emax at 30 µM: CHO-K1, % ACh maximum at 30 μM; for EC50: calcium flux, read-out: Human M4 EC50. How it is done: Human and rat M4 cDNAs, along with the chimeric G protein Gqi5, were transfected into Chinese hamster ovary (CHO-K1) cells purchased from the American Type Culture Collection using Lipofectamine2000. hM4-Gqi5 cells were grown in Ham's F-12 medium containing 10% heat-inactivated fetal bovine serum (FBS), 20 mM HEPES, 50 μg/mL G418 sulfate, and 500 μg/mL Hygromycin B. rM4-Gqi5 cells were grown in DMEM containing 10% heat-inactivated FBS, 20 mM HEPES, 400 μg/mL G418 sulfate, and 500 μg/mL Hygromycin B.
For high throughput measurement of agonist-evoked increases in intracellular calcium, CHO-K1 cells stably expressing muscarinic receptors were plated in growth medium lacking G418 and hygromycin at 15,000 cells/20 μL/well in Greiner 384-well black-walled, tissue culture (TC)-treated, clear-bottom plates (VWR). Cells were incubated overnight at 37° C. and 5% CO2. The next day, cells were washed using an ELX 405 (BioTek) with assay buffer; the final volume was then aspirated to 20 μL. Next, 20 μL of a 2.3 μM stock of Fluo-4/acetoxymethyl ester (Invitrogen, Carlsbad, CA), prepared as a 2.3 mM stock in DMSO and mixed in a 1:1 ratio with 10% (w/v) Pluronic F-127 and diluted in assay buffer, was added to the wells and the cell plates were incubated for 50 min at 37° C. and 5% CO2. Dye was removed by washing with the ELX 405 and the final volume was aspirated to 20 μL. Compound master plates were formatted in an 11 point concentration-response curve (CRC) format (1:3 dilutions) in 100% DMSO with a starting concentration of 10 mM using a BRAVO liquid handler (Agilent). Test compound CRCs were then transferred to daughter plates (240 nL) using the Echo acoustic plate reformatter (Labcyte, Sunnyvale, CA) and then diluted into assay buffer (40 μL) to a 2× stock using a Thermo Fisher Combi (Thermo Fisher Scientific, Waltham, MA).
Calcium flux was measured using the Functional Drug Screening System (FDSS) 6000 or 7000 (Hamamatsu Corporation, Tokyo, Japan) as an increase in the fluorescent static ratio. Compounds were applied to cells (20 μL, 2×) using the automated system of the FDSS at 2-4 seconds into the protocol and the data were collected at 1 Hz. At 144 seconds, 10 μL of an EC20 concentration of the muscarinic receptor agonist acetylcholine was added (5×), followed by the addition of 12 μL of an EC80 concentration of acetylcholine at the 230 second time point (5×). Agonist activity was analyzed as a concentration-dependent increase in calcium mobilization upon compound addition. Positive allosteric modulator activity was analyzed as a concentration-dependent increase in the EC20 acetylcholine response. Antagonist activity was analyzed as a concentration-dependent decrease in the EC80 acetylcholine response. Concentration-response curves were generated using a four-parameter logistical equation in XLFit curve fitting software (IDBS, Bridgewater, NJ) for Excel (Microsoft, Redmond, WA) or Prism (GraphPad Software, Inc., San Diego, CA).
Compounds were synthesized as described above. Activity (EC50 and Emax) was determined in the mAChR M4 cell-based functional assay as described above and the data are shown in Tables 2-4. The compound number corresponds to the compound numbers used in Table 1.

[1] abbreviates: hM4-Gqi5 CHO-K1 cells, PAM of EC20 acetylcholine.
Where [2] appears, read: Table 3, Human M4, read-out: Emax (% ACh maximum at 30 μM).
Setting [3] is: Table 3, potentiation of EC20 acetylcholine response, CHO-K1 cells.

With `Cc1cc2nncn2nc1N1CCc2ncc(Nc3ccncc3F)cc2C1` [Compound 360, N-(3-fluoropyridin-4-yl)-6-(7-methyl-[1,2,4]triazolo[4,3-b]pyridazin-6-yl)-5,6,7,8-tetrahydro-1,6-naphthyridin-3-amine], where the note is “Table 4, Human M4, read-out: Emax (% ACh maximum at 30 μM)”, the Emax at 30 µM came to 100%. Further, the 50% effective concentration (EC50) (Table 4, potentiation of EC20 acetylcholine response, CHO-K1 cells) was found to be 5 nM.

`COc1ccccc1Nc1cnc2c(c1)CN(c1nn3cnnc3c(C)c1C)CC2` [Compound 54, 6-(7,8-dimethyl-[1,2,4]triazolo[4,3-b]pyridazin-6-yl)-N-(2-methoxyphenyl)-7,8-dihydro-5H-1,6-naphthyridin-3-amine]: the Emax at 30 µM (human M4, read-out: Emax) worked out at 90%. In addition, under setting [1], the EC50 amounted to 152 nM.

Consider `Cc1c(N2CCc3ncc(Nc4cc(Cl)c(F)cc4F)cc3C2)nn2cnnc2c1C` [Compound 45, N-(5-chloro-2,4-difluoro-phenyl)-6-(7,8-dimethyl-[1,2,4]triazolo[4,3-b]pyridazin-6-yl)-7,8-dihydro-5H-1,6-naphthyridin-3-amine], for which the Emax at 30 µM (human M4, read-out: Emax) was found to be 71%. Besides, under setting [1], the EC50 was found to be 271 nM.

As to `Cc1cc(Nc2cnc3c(c2)CN(c2nn4cnnc4c(C)c2C)CC3)n(CCC(C)C)n1` [Compound 211, 6-(7,8-dimethyl-[1,2,4]triazolo[4,3-b]pyridazin-6-yl)-N-(1-isopentyl-3-methyl-1H-pyrazol-5-yl)-5,6,7,8-tetrahydro-1,6-naphthyridin-3-amine], the Emax at 30 µM under setting [2] was determined as 38%. Moreover, under setting [3], the EC50 was found to be 4120 nM.

As to `Cc1c(N2CCc3ncc(-c4ccc(N5CCCCC5)nc4)cc3C2)nn2cnnc2c1C` [Compound 185, 6-(7,8-dimethyl-[1,2,4]triazolo[4,3-b]pyridazin-6-yl)-3-(6-(piperidin-1-yl)pyridin-3-yl)-5,6,7,8-tetrahydro-1,6-naphthyridine], the Emax at 30 µM under setting [2] came out at 86%. In addition, the EC50 under setting [3] was determined as 333 nM.

In the case of `COC1CCN(c2cnc3c(c2)CN(c2nn4c(C(F)(F)F)nnc4c(C)c2C)CC3)C1` (stereo not shown) [Compound 288, 6-(7,8-dimethyl-3-(trifluoromethyl)-[1,2,4]triazolo[4,3-b]pyridazin-6-yl)-3-(3-methoxypyrrolidin-1-yl)-5,6,7,8-tetrahydro-1,6-naphthyridine], under setting [2], the Emax at 30 µM came out at 77%. In addition, the EC50 under setting [3] turned out to be 940 nM.

With `Cc1c(N2CCc3ncc(N4CCN(C)CC4)cc3C2)nn2c(C(F)(F)F)nnc2c1C` [Compound 276, 6-(7,8-dimethyl-3-(trifluoromethyl)-[1,2,4]triazolo[4,3-b]pyridazin-6-yl)-3-(4-methylpiperazin-1-yl)-5,6,7,8-tetrahydro-1,6-naphthyridine], the Emax at 30 µM under setting [2] was determined as 65%. For the same compound, the EC50 under setting [3] is 1970 nM.

On to `Cc1c(N2CCc3ncc(C(F)F)cc3C2)nn2cnnc2c1C` [Compound 189, 3-(difluoromethyl)-6-(7,8-dimethyl-[1,2,4]triazolo[4,3-b]pyridazin-6-yl)-5,6,7,8-tetrahydro-1,6-naphthyridine], for which the Emax at 30 µM under setting [2] came out at 103%. For the same compound, the EC50 under setting [3] stood at 90 nM.

For the compound `Cc1cc2nncn2nc1N1CCc2ncc(-c3ccns3)cc2C1` [Compound 193, 5-(6-(7-methyl-[1,2,4]triazolo[4,3-b]pyridazin-6-yl)-5,6,7,8-tetrahydro-1,6-naphthyridin-3-yl)isothiazole], the Emax at 30 µM under setting [2] was 93%. Further, the EC50 under setting [3] was found to be 94 nM.

Take `Cc1cc2nncn2nc1N1CCc2ncc(-c3cnn(C)c3)cc2C1` [Compound 140, 3-(1-methylpyrazol-4-yl)-6-(7-methyl-[1,2,4]triazolo[4,3-b]pyridazin-6-yl)-7,8-dihydro-5H-1,6-naphthyridine]: the Emax at 30 µM (human M4, read-out: Emax) was found to be 100%. Under setting [1], the EC50 is 373 nM.

Consider `Cc1cc2nncn2nc1N1CCc2ncc(-c3cnn(C4CCNCC4)c3)cc2C1` [Compound 149, 6-(7-methyl-[1,2,4]triazolo[4,3-b]pyridazin-6-yl)-3-[1-(4-piperidyl)pyrazol-4-yl]-7,8-dihydro-5H-1,6-naphthyridine], for which the Emax at 30 µM (human M4, read-out: Emax) stood at 107%. The concentration giving a half-maximal response (EC50) under setting [1] is 316 nM.

The values above are taken from patent US20250002507A1, “7,8-DIHYDRO-5H-1,6-NAPHTHYRIDINE DERIVATIVES AS POSITIVE ALLOSTERIC MODULATORS OF THE MUSCARINIC ACETYLCHOLINE RECEPTOR M4 FOR TREATING NEUROLOGICAL AND PSYCHIATRIC DISORDERS” (Vanderbilt University, priority 2021, published 2025).
